Each molecule was assayed on HeLa human cervical tumor cells (ATCC CCL-2) (assay: Proliferation Assay (crystal violet staining, 4 days)). Details: 96 h, 4 days incubation, read-out: EO-PROLIF-HELA.
Type: cell-based
Description: Biological Assay: Proliferation Assay
Cultivated HeLa human cervical tumor cells (ATCC CCL-2) were plated at a density of 3000 cells/well in a 96-well multititer plate in 200 μl DMEM/HAMS F12 medium supplemented with 2 mM L-Glutamine and 10% fetal calf serum. After 24 hours, the cells of one plate (zero-point plate) were stained with crystal violet (see below), while the medium of the other plates was replaced by fresh culture medium (200 μl), to which the test substances were added in various concentrations (0 μM, as well as in the range of 0.01-30 μM; the final concentration of the solvent dimethyl sulfoxide was 0.5%). The cells were incubated for 4 days in the presence of test substances. Cell proliferation was determined by staining the cells with crystal violet: the cells were fixed by adding 20 μl/measuring point of an 11% glutaric aldehyde solution for 15 minutes at room temperature. After three washing cycles of the fixed cells with water, the plates were dried at room temperature. The cells were stained by adding 100 μl/measuring point of a 0.1% crystal violet solution (pH 3.0). After three washing cycles of the stained cells with water, the plates were dried at room temperature. The dye was dissolved by adding 100 μl/measuring point of a 10% acetic acid solution. The extinction was determined by photometry at a wavelength of 595 nm. The change of cell number, in percent, was calculated by normalization of the measured values to the extinction values of the zero-point plate (=0%) and the extinction of the untreated (0 μm) cells (=100%). The IC50 values were determined by means of a 4 parameter fit using the company's own software.
Molecule `O=C(Cc1ccccn1)Nc1ccc(-c2ccc3ncc(N4CCN(c5ccncc5)CC4)nc3c2)cc1` [Example 7.6, 2-(pyridin-2-yl)-N-(4-{3-[4-(pyridin-4-yl)piperazin-1-yl]quinoxalin-6-yl}phenyl)acetamide] has an IC50 of 2790 nM.
With `Oc1ccc(-c2ccc3ncc(N4CCN(c5ccncc5)CC4)nc3c2)cc1` [Example 3.15, 4-{3-[4-(pyridin-4-yl)piperazin-1-yl]quinoxalin-6-yl}phenol] the IC50 was 2920 nM.
For `O=C(CC1CC1)Nc1ccc(-c2ccc3ncc(N4CCN(c5ccncc5)CC4)nc3c2)cc1` [Example 7.7, 2-cyclopropyl-N-(4-{3-[4-(pyridin-4-yl)piperazin-1-yl]quinoxalin-6-yl}phenyl)acetamide], the IC50 was 1710 nM.
For `O=C(Cc1ccccc1F)Nc1ccc(-c2ccc3ncc(N4CCN(c5ccncc5)CC4)nc3c2)cc1` [Example 7.2, 2-(2-fluorophenyl)-N-(4-{3-[4-(pyridin-4-yl)piperazin-1-yl]quinoxalin-6-yl}phenyl)acetamide], the IC50 was 2840 nM.
Work on `Oc1ccc(-c2ccc3ncc(N4CCN(Cc5cccnc5)CC4)nc3c2)cc1` [Example 3.35, 4-{3-[4-(pyridin-3-ylmethyl)piperazin-1-yl]quinoxalin-6-yl}phenol] yielded an IC50 of 8250 nM.
With `Oc1ccc(-c2ccc3ncc(N4CCOCC4)nc3c2)cc1` [Example 3.5, 4-[3-(morpholin-4-yl)quinoxalin-6-yl]phenol] the IC50 was 2510 nM.
In the case of `Oc1ccc(-c2ccc3ncc(N4CCN(c5cnccn5)CC4)nc3c2)cc1` [Example 3.17, 4-{3-[4-(pyrazin-2-yl)piperazin-1-yl]quinoxalin-6-yl}phenol], the IC50 is reported as 3870 nM.
In the case of `O=C(Cc1cccc(C(F)(F)F)c1)Nc1ccc(-c2ccc3ncc(N4CCOCC4)nc3c2)cc1` [Example 4.13, N-{4-[3-(morpholin-4-yl)quinoxalin-6-yl]phenyl}-2-[3-(trifluoromethyl)phenyl]acetamide], the IC50 is reported as 8120 nM.
`O=C(Nc1ccc(-c2ccc3ncc(N4CCN(c5ccncc5)CC4)nc3c2)cc1)NC1CC1` [Example 8.3, 1-cyclopropyl-3-(4-{3-[4-(pyridin-4-yl)piperazin-1-yl]quinoxalin-6-yl}phenyl)urea] showed an IC50 of 3000 nM.
Molecule `O=C(NCc1ccccc1)Nc1ccc(-c2ccc3ncc(N4CCOCC4)nc3c2)cc1` [Example 6.6, 1-benzyl-3-{4-[3-(morpholin-4-yl)quinoxalin-6-yl]phenyl}urea] has an IC50 of 10000 nM.
With `O=C(Cc1ccccc1F)Nc1ccc(-c2ccc3ncc(N4CCN(Cc5cccnc5)CC4)nc3c2)cc1` [Example 9.2, 2-(2-fluorophenyl)-N-(4-{3-[4-(pyridin-3-ylmethyl)piperazin-1-yl]quinoxalin-6-yl}phenyl)acetamide] the IC50 was 3000 nM.
`O=C(Nc1ccc(-c2ccc3ncc(N4CCOCC4)nc3c2)cc1)Nc1cccnc1` [Example 6.8, 1-{4-[3-(morpholin-4-yl)quinoxalin-6-yl]phenyl}-3-pyridin-3-ylurea] gave an IC50 of 3930 nM.
`O=C(CCc1ccccc1)Nc1ccc(-c2ccc3ncc(N4CCN(c5ccncc5)CC4)nc3c2)cc1` [Example 7.4, 3-phenyl-N-(4-{3-[4-(pyridin-4-yl)piperazin-1-yl]quinoxalin-6-yl}phenyl)propanamide] showed an IC50 of 1430 nM.
With `O=C(Cc1ccccc1)Nc1ccc(-c2ccc3ncc(N4CCN(c5ccncc5)CC4)nc3c2)cc1` [Example 7.1, 2-phenyl-N-{4-[3-(4-pyridin-4-yl-piperazin-1-yl)-quinoxalin-6-yl]-phenyl}-acetamide] the IC50 was 2610 nM.
`O=C(Cc1ccccc1)Nc1ccc(-c2ccc3ncc(N4CCN(Cc5cccnc5)CC4)nc3c2)cc1` [Example 9.1, 2-phenyl-N-{4-[3-(4-pyridin-3-ylmethyl-piperazin-1-yl)-quinoxalin-6-yl]-phenyl}-acetamide] was tested, and the IC50 was 3000 nM.
`CN1CCN(Cc2ccc(NC(=O)Nc3ccc(-c4ccc5ncc(N6CCCCC6)nc5c4)cc3)cc2C(F)(F)F)CC1` [Example 2.73, 1-{4-[(4-methylpiperazin-1-yl)methyl]-3-(trifluoromethyl)phenyl}-3-{4-[3-(piperidin-1-yl)quinoxalin-6-yl]phenyl}urea] gave an IC50 of 1120 nM.
With `CC(=O)Nc1ccc(-c2ccc3ncc(N4CCOCC4)nc3c2)cc1` [Example 1.73, N-{4-[3-(morpholin-4-yl)quinoxalin-6-yl]phenyl}acetamide] the IC50 was 3000 nM.
`CN1CCN(Cc2ccc(NC(=O)Nc3ccc(-c4ccc5ncc(N6CCOCC6)nc5c4)cc3)cc2C(F)(F)F)CC1` [Example 1.71, 1-{4-[(4-methylpiperazin-1-yl)methyl]-3-(trifluoromethyl)phenyl}-3-{4-[3-(morpholin-4-yl)quinoxalin-6-yl]phenyl}urea] was tested, and the IC50 was 889 nM.
`O=C(Nc1ccccc1)c1ccc(-c2ccc3ncc(N4CCCCC4)nc3c2)cc1` [Example 2.90, N-phenyl-4-[3-(piperidin-1-yl)quinoxalin-6-yl]benzamide] was tested, and the IC50 was 3000 nM.
For `CC(C(=O)Nc1ccc(-c2ccc3ncc(N4CCN(Cc5cccnc5)CC4)nc3c2)cc1)c1ccccc1` (stereo not drawn) [Example 9.3, 2-phenyl-N-(4-{3-[4-(pyridin-3-ylmethyl)piperazin-1-yl]quinoxalin-6-yl}phenyl)propanamide], the IC50 was 3000 nM.
Work on `CC(C(=O)Nc1ccc(-c2ccc3ncc(N4CCN(c5ccncc5)CC4)nc3c2)cc1)c1ccccc1` (stereo not drawn) [Example 7.3, 2-phenyl-N-(4-{3-[4-(pyridin-4-yl)piperazin-1-yl]quinoxalin-6-yl}phenyl)propanamide] yielded an IC50 of 2560 nM.
For `O=C(Cc1ccccc1)Nc1ccc(-c2ccc3ncc(N4CCOCC4)nc3c2)cc1` [Example 4.3, N-{4-[3-(morpholin-4-yl)quinoxalin-6-yl]phenyl}-2-phenylacetamide], the IC50 was 10000 nM.
Molecule `Cc1cc(-c2ccc3ncc(N4CCOCC4)nc3c2)cc(C)c1O` [Example 1.108, 2,6-dimethyl-4-[3-(morpholin-4-yl)quinoxalin-6-yl]phenol] has an IC50 of 2320 nM.
`CNC(=O)c1ccc(-c2ccc3ncc(N4CCOCC4)nc3c2)cc1` [Example 1.47, N-methyl-4-[3-(morpholin-4-yl)quinoxalin-6-yl]benzamide] showed an IC50 of 3000 nM.

Source: patent publication US9340528B2, “Substituted aminoquinoxalines as tyrosine threonine kinase inhibitors” (BAYER PHARMA AKTIENGESELLSCHAFT, priority 2009, dated 2016)
